Results published in patent US8741897B2, “Glucocorticoid mimetics, methods of making them, pharmaceutical compositions and uses thereof” (Boehringer Ingelheim Pharmaceuticals Inc., priority 2003, dated 2014).

What was measured:
[1] = target: T1, human glucocorticoid receptor (GR) complex (Homo sapiens, UniProt P04150); assay: Glucocorticoid receptor competitive binding assay (fluorescence polarization, TAMRA-labeled dexamethasone probe); settings: compounds of Formula (IA)
T1 construct: made in house; host or cells: insect expression system (baculovirus lysate)
T1 sequence (P04150 1-777): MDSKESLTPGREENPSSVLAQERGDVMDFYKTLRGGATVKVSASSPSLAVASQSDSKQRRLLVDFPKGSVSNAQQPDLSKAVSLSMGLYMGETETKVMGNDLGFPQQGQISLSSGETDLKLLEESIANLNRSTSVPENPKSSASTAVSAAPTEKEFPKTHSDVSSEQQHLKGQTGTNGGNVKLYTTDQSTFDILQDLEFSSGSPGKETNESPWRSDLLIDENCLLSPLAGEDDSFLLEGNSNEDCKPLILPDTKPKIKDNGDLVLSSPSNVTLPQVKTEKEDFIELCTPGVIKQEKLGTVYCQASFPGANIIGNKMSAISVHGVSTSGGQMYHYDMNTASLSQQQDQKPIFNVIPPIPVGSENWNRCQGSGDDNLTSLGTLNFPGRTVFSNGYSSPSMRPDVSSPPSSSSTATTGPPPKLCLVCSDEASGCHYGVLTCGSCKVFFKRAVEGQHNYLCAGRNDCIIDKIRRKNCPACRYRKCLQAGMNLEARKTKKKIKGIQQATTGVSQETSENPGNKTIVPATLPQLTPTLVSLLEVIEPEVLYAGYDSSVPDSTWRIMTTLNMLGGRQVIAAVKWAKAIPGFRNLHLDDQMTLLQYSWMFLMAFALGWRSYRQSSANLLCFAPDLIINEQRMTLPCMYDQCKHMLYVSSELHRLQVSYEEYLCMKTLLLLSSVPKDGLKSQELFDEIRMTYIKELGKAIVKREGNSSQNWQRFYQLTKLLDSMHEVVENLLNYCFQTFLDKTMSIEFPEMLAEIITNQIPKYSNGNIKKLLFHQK
Summary of the method: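 Fluorescence-polarization competition against 15 nM TAMRA-dexamethasone (stock added to the mix) for human GR complex from baculovirus lysate diluted 1:170. Buffer: 10 mM TES, 50 mM KCl, 20 mM Na2MoO4, 1.5 mM EDTA, 0.04% CHAPS, 10% glycerol, 1 mM DTT, pH 7.4. IC50 from 4-parameter logistic fit.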

[2] = tested on: glucocorticoid receptor function; assay: one or more of the above assays (GR binding and glucocorticoid receptor cell assays: aromatase, IL-6, TAT, MMTV-Luc, IL-8, ICAM-Luc); assay type: cell-based; settings: assay not specified per compound

Row | activity in the GR binding assay [1] | Compound | activity as agonists of the glucocorticoid receptor function in one or more of the above assays [2]
1 | potent activity | CC(C)(CC(O)(Cc1ccnc(Br)c1)C(F)(F)F)c1cc(F)ccc1O (stereo not shown) [2-[3-(2-Bromopyridin-4-ylmethyl)-4,4,4-trifluoro-3-hydroxy-1,1-dimethylbutyl]-4-fluorophenol] | potent agonists
2 | potent activity | Cc1ccc(C)c(C(C)(C)CC(O)(Cc2ccnc3ccccc23)C(F)(F)F)c1 (stereo not shown) [4-(2,5-Dimethylphenyl)-1,1,1-trifluoro-4-methyl-2-quinolin-4-ylmethylpentan-2-ol] | potent agonists
3 | potent activity | COc1ccc(C)cc1C(C)(C)CC(O)(Cc1ccnc2ccccc12)C(F)(F)F (stereo not shown) [1,1,1-Trifluoro-4-(2-methoxy-5-methylphenyl)-4-methyl-2-quinolin-4-ylmethylpentan-2-ol] | potent agonists
4 | potent activity | CC(C)(CC(O)(Cc1ccnc(F)c1)C(F)(F)F)c1cc(F)ccc1O (stereo not shown) [4-Fluoro-2-[4,4,4-trifluoro-3-(2-fluoropyridin-4-ylmethyl)-3-hydroxy-1,1-dimethylbutyl]phenol] | potent agonists
5 | potent activity | Cc1ccc(F)cc1C(C)(C)CC(O)(Cc1ccnc2ccccc12)C(F)(F)F (stereo not shown) [1,1,1-Trifluoro-4-(5-fluoro-2-methylphenyl)-4-methyl-2-quinolin-4-ylmethylpentan-2-ol] | potent agonists

The remaining lines, values behind:

Row | Compound | activity in the GR binding assay [1] | activity as agonists of the glucocorticoid receptor function in one or more of the above assays [2]
6 | COc1ccc(F)cc1C(C)(C)CC(O)(Cc1ccnc(C#N)c1)C(F)(F)F (stereo not shown) [4-[4-(5-Fluoro-2-methoxyphenyl)-2-hydroxy-4-methyl-2-trifluoromethylpentyl]pyridine-2-carbonitrile] | potent activity | potent agonists
7 | CN(C)Cc1cccc(C(C)(C)CC(O)(Cc2cc3cc(C#N)ccc3[nH]2)C(F)(F)F)c1 (stereo not shown) [2-[4-(3-Dimethylaminomethylphenyl)-2-hydroxy-4-methyl-2-trifluoromethylpentyl]-1H-indole-5-carbonitrile] | potent activity | potent agonists
8 | CC(C)c1ccc(O)c(C(C)(C)CC(O)(Cc2[nH]c3ccccc3c2C#N)C(F)(F)F)c1 (stereo not shown) [2-[2-Hydroxy-4-(2-hydroxy-5-isopropylphenyl)-4-methyl-2-trifluoromethylpentyl]-1H-indole-3-carbonitrile] | potent activity | potent agonists
9 | CC(C)(CC(O)(Cc1cc(Cl)nc2ccc(Cl)cc12)C(F)(F)F)c1cc(F)ccc1O (stereo not shown) [2-[3-(2,6-Dichloroquinolin-4-ylmethyl)-4,4,4-trifluoro-3-hydroxy-1,1-dimethylbutyl]-4-fluorophenol] | potent activity | potent agonists
10 | CC(C)(CC(O)(Cc1cc2ccc(C#N)cc2[nH]1)C(F)(F)F)c1cc(F)ccc1O (stereo not shown) [2-[4-(5-Fluoro-2-hydroxyphenyl)-2-hydroxy-4-methyl-2-trifluoromethylpentyl]-1H-indole-6-carbonitrile] | potent activity | potent agonists
11 | Cc1cc(C#N)cc2[nH]c(CC(O)(CC(C)(C)c3ccc(F)cc3O)C(F)(F)F)cc12 (stereo not shown) [2-[4-(4-Fluoro-2-hydroxyphenyl)-2-hydroxy-4-methyl-2-trifluoromethylpentyl]-4-methyl-1H-indole-6-carbonitrile] | potent activity | potent agonists
